These results are taken from PMC9737983, “Quantification of Paeoniflorin by Fully Validated LC–MS/MS Method: Its Application to Pharmacokinetic Interaction between Paeoniflorin and Verapamil” (Molecules, 2022).

Series [1] in a line: Pharmacokinetic study in male SD rats (intravenous, oral, oral co-administration with verapamil). Type of series: in vivo, Sprague–Dawley rats. The following applies: for MRT inf: read-out: MRT0–∞; for Vd/F: read-out: Vz/F. The procedure:
The animal experiment was approved by the Experimental Animal Ethics Committee of Shanghai University of Traditional Chinese Medicine (the Ethics Number: PZSHUTCM201016015). After 7 days of freely feeding the animals to acclimation, the rats were randomly divided into five groups, including the following: PF at an intravenous dose of 2 mg/kg and intragastric administrations of 5 mg/kg, 10 mg/kg, and 20 mg/kg; PF combined with verapamil at doses of 20 mg/kg and 50 mg/kg, respectively. All groups of PF or PF combined with verapamil were dissolved in saline to be completely dissolved or suspended. Blood samples were collected into EDTA−2K anti-coagulant tubes at projected times (0.083, 0.25, 0.5, 1, 2, 4, and 6 h post-dose) and then immediately centrifuged at 5500 rpm at 4 °C for 10 min to obtain the supernatant. The plasma samples were stored at −20 °C prior to analysis.
The plasma drug concentration of the PF was quantitated, according to the calibration curve, by the ratio of the analyte-to-IS peak areas obtained for each sample. Pharmacokinetic parameters, such as elimination half-life (T1/2), the area under the concentration–time curve from time zero to infinity (AUC0–∞), total body clearance (CL), and volume of distribution (Vz), were analyzed by the non-compartment model using WinNonlin software (Version 8.2). Subsequently, the main pharmacokinetic parameters were analyzed by an independent sample t-test. The oral absolute bioavailability was calculated as prescribed by the following equation: F (%) = (AUCp.o. × Dosei.v.)/(AUCi.v. × Dosep.o.) × 100%.

Series [2] in a line: Caco-2 Transwell transport of PF with and without verapamil. Type of series: in vitro ADME. The following applies: human, Caco-2, absence of verapamil. The procedure: (§1) The Caco−2 cells were purchased from ATCC (Manassas, VA, USA) and cultured in a DMEM high-glucose medium with 15% FBS, 1% NEAA, and 100 U/mL penicillin and streptomycin. A total of 1.25 × 10^5 cells/cm^2 were seeded into […] (PET) in 96-well Falcon insert systems for 21–28 days to obtain a confluent cell monolayer. The test compounds were diluted with the transport buffer (HBSS with BSA) obtained from a 10 mM stock solution to a concentration of 10 µM and applied to the apical or basolateral sides of the cell monolayer. The permeation of the test compounds from A to B directions or B to A directions was determined in duplicate over a 120-min incubation period at 37 °C and 5% CO2 with a relative humidity of 95%. In addition, the efflux ratio of each compound was also determined. Test and reference compounds were quantified by LC-MS/MS analysis based on the peak area ratio of analyte/IS. The apparent permeability coefficient, Papp (cm/s), was calculated using the following equation:Papp = (dCr/dt) × Vr/(A × C0) where dCr/dt is the cumulative concentration of the compound in the receiver chamber as a function of time (S); Vr is the solution volume in the receiver chamber (0.1 mL on the apical side and 0.25 mL on the basolateral side); A is the surface area for the transport, i.e., 0.0804 cm^2 for the area of the monolayer and C0 is the initial concentration in the donor chamber. The efflux ratio was calculated using the following equation:Efflux Ratio = Papp BA/Papp AB where Papp BA is the apparent permeability coefficient obtained from the BL to AP sides (cm/s), and Papp AB is the apparent permeability coefficient obtained from the AP to BL sides (cm/s).
(Caco-2 cells form a polarised layer with tight junctions and transporters.)

In series [3] the test system is Caco−2 cells. The series is described as above. Type of series: in vitro ADME. The following applies: with/without verapamil, p < 0.05. The procedure: as §1
Details of series [4]: method as in PMID 31400507. As to conditions: cited from earlier work; for BCS class: classic BCS, everted gut sac assay.
A short description of series [5]: Stability of PF in SD rat plasma under storage conditions. As to conditions: for Freeze-thaw Stability, Measured Conc. / Bench-top Stability, Measured Conc. / Long-term Stability, Measured Conc.: SD rat plasma; for Freeze-thaw Stability, Measured Conc.: 4 cycles at −20 °C; for Freeze-thaw Stability, Measured Conc. / Bench-top Stability, Measured Conc. / Long-term Stability, Measured Conc. / Autosampler Stability, Measured Conc.: n = 6; for Bench-top Stability, Measured Conc.: room temperature for 16 h; for Long-term Stability, Measured Conc.: −20 °C for 90 days; for Autosampler Stability, Measured Conc.: extracted SD rat plasma, 10 °C for 72 h. Type of series: in vitro ADME. The procedure:
Stability in the plasma was tested by comparing the two-level QC samples (LQC and HQC) in sextuplicate injections to theoretical concentrations.
The stability of PF in rat plasma was investigated by analyzing QC samples at […]. Long-term stability was tested at −20 °C for at least 30 days; short-term stability was tested at room temperature for at least 6 h; the post-preparative stability test was conducted at 10 °C for 72 […] The determined concentrations should be within ±15% of the nominal concentrations.

In series [6] the test system is Caco-2 cell. The following applies: Caco-2 monolayer cell; cited from earlier work.
Where [7] appears, read: male, Sprague-Dawley, rat, plasma, iv, 2 mg/kg, intravenous 2 mg/kg, n = 5.
Setting [8] is: male, Sprague-Dawley, rat, plasma, po, 5 mg/kg, oral mono-administration 5 mg/kg, n = 5.
[9] abbreviates: male, Sprague-Dawley, rat, plasma, po, 10 mg/kg, oral mono-administration 10 mg/kg, n = 5.
Where [10] appears, read: male, Sprague-Dawley, rat, plasma, po, 20 mg/kg, oral 20 mg/kg co-administration with verapamil (50 mg/kg), n = 5.
The mark [11] stands for this setting: male, Sprague-Dawley, rat, plasma, po, 20 mg/kg, oral mono-administration 20 mg/kg, n = 5.
The mark [12] stands for this setting: male, Sprague-Dawley, rat, plasma, po, 20 mg/kg, range over oral doses 5, 10, 20 mg/kg.
Where [13] appears, read: male, Sprague-Dawley, rat, plasma, intravenous 2 mg/kg, n = 5.
The mark [14] stands for this setting: oral 20 mg/kg with verapamil vs alone, p < 0.05.

Where two headings read alike, the source gives them in different places.

For `C[C@@]12C[C@@]3(O)O[C@@H](O1)[C@]1(COC(=O)c4ccccc4)[C@H]3C[C@@]12O[C@@H]1O[C@H](CO)[C@@H](O)[C@H](O)[C@H]1O` [PF, paeoniflorin], the AUC(0-inf) (in general, the area under the concentration-time curve extrapolated to infinity) in series [1] (setting [7]) worked out at 2400 ± 201 ng·h/mL; in series [1] (setting [8]), 74.7 ± 49.1 ng·h/mL; in series [1] (setting [9]), 84 ± 17 ng·h/mL; in series [1] (setting [10]), 892 ± 487 ng·h/mL; in series [1] (setting [11]) it was 157 ± 65.3 ng·h/mL. The AUC(0-t) (in general, exposure summed from dosing to a finite time, without extrapolation to infinity) in series [1] (setting [7]) is 2400 ± 202 ng·h/mL; in series [1] (setting [8]), 64.7 ± 44 ng·h/mL; in series [1] (setting [9]), 82.3 ± 18.4 ng·h/mL; in series [1] (setting [10]) it was 882 ± 491 ng·h/mL; in series [1] (setting [11]) it was 149 ± 64.8 ng·h/mL. Further, the half-life (usually how long it takes for the measured level to halve) in series [1] (setting [7]) is 54 ± 24 min; in series [1] (setting [8]), 48 ± 24 min; in series [1] (setting [9]), 30 ± 6 min; in series [1] (setting [10]), 42 ± 6 min; in series [1] (setting [11]), 30 ± 6 min; in series [1] (setting [12]), 30 to 48 min. The MRT inf in series [1] (setting [7]) came out at 12 min; in series [1] (setting [8]) it was 78 ± 30 min; in series [1] (setting [9]), 60 ± 12 min; in series [1] (setting [10]) it was 90 ± 6 min; in series [1] (setting [11]), 72 ± 6 min. Besides, the bioavailability in series [1] (male, Sprague-Dawley, rat, plasma, po, 5 mg/kg, oral mono-administration 5 mg/kg vs intravenous 2 mg/kg, read-out: F) was 1.3%; in series [1] (male, Sprague-Dawley, rat, plasma, po, 10 mg/kg, oral mono-administration 10 mg/kg vs intravenous 2 mg/kg, read-out: F), 0.7%; in series [1] (male, Sprague-Dawley, rat, plasma, po, 20 mg/kg, oral 20 mg/kg co-administration with verapamil vs intravenous 2 mg/kg, read-out: F) it was 3.7%; in series [1] (male, Sprague-Dawley, rat, plasma, po, 20 mg/kg, oral mono-administration 20 mg/kg vs intravenous 2 mg/kg, read-out: F) it was 0.6%; in series [1] (male, Sprague-Dawley, rat, plasma, po, 20 mg/kg, range over oral doses 5, 10, 20 mg/kg, read-out: absolute oral bioavailability) it was 0.6 to 1.3%. The CL/F – broadly, the apparent clearance, not corrected for the fraction that reaches the circulation – is 1640 mL/min/kg in series [1] (setting [8]); 2050 mL/min/kg in series [1] (setting [9]); 487 mL/min/kg in series [1] (setting [10]); 2420 mL/min/kg in series [1] (setting [11]); 1640 to 2420 mL/min/kg in series [1] (setting [12]). Further, the peak concentration (Cmax) (commonly the highest concentration seen after dosing) in series [1] (setting [8]) came to 42.3 ± 17.5 ng/mL; in series [1] (setting [9]), 63.4 ± 11.4 ng/mL; in series [1] (setting [10]) it was 464 ± 237 ng/mL; in series [1] (setting [11]) it was 100 ± 42.5 ng/mL; in series [1] (oral 5 mg/kg) it was 42.3 ± 17.5 ng/mL; in series [1] (oral 10 mg/kg), 63.4 ± 11.4 ng/mL. In series [1] (oral 20 mg/kg), the maximum concentration (Cmax) is 100 ± 42.5 ng/mL. The time of peak concentration (Tmax) (as a rule, the time from dosing to the highest level) in series [1] (setting [8]) is 30 min; in series [1] (setting [9]), 30 min; in series [1] (setting [10]), 42 ± 18 min; in series [1] (setting [11]), 42 ± 18 min; in series [1] (setting [12]) it was 30 to 42 min. Besides, the Vd/F in series [1] (setting [8]) was found to be 85.7 ± 21.1 L/kg; in series [1] (setting [9]) it was 89 ± 7.1 L/kg; in series [1] (setting [10]) it was 31.5 ± 20.3 L/kg; in series [1] (setting [11]), 112 ± 45.7 L/kg. Further, the C0 in series [1] (setting [13]) turned out to be 11200 ng/mL. Also, the clearance in series [1] (setting [13]) was 13.3 mL/min/kg. In addition, the Vd in series [1] (male, Sprague-Dawley, rat, plasma, intravenous 2 mg/kg, n = 5, read-out: Vz) worked out at 0.2 L/kg. In series [1] (oral 20 mg/kg with verapamil vs alone, p < 0.01), the “increase of Cmax, co-administration vs mono-administration” value worked out at 4.6 times. Also, in series [1] (setting [14]), the “increase of AUC0–t, co-administration vs mono-administration” value is listed as 5.9 times. Moreover, in series [1] (setting [14]), the “increase of AUC0–∞, co-administration vs mono-administration” value came to 5.7 times. The “Tmax, T1/2 and MRT0–∞, co-administration vs mono-administration” value in series [1] (oral 20 mg/kg with verapamil vs alone, statistical analysis) was “no significant difference”. For the same compound, the efflux ratio (in general, a quotient of directional permeabilities that is used to spot active efflux) at 120 min, 10 µM in series [2] is 1.52. Besides, the Papp A→B – broadly, how fast a substance crosses the layer from the apical side – at 120 min, 10 µM in series [2] (10 µM, 120 min) came to 0.17 ×10⁻⁶ cm/s. In series [2] (10 µM, 120 min), the basolateral-to-apical permeability (Papp B→A) (as a rule, how fast a substance crosses the layer from the basolateral side) at 120 min, 10 µM was found to be 0.26 ×10⁻⁶ cm/s. In addition, the P-gp substrate status entry in series [3] was “may be a substrate for the P-gp efflux transporter”. The “solubility and permeability characteristics” value in series [4] is “high solubility and low permeability”. Moreover, in series [5] (16 h bench-top, 72 h autosampler, 4 freeze-thaw cycles at −20 °C, 90 days at −20 °C), the “stability in SD rat plasma” value was “stable”. Moreover, the entries for the “Freeze-thaw Stability, Measured Conc.” value in series [5] (nominal 3.0 ng/mL) and in series [5] (nominal 1500 ng/mL) were 3.14 ± 0.17 ng/mL and 1662 ± 44.5 ng/mL, respectively. Further, the “Bench-top Stability, Measured Conc.” value in series [5] (nominal 3.0 ng/mL) stood at 3.01 ± 0.21 ng/mL; in series [5] (nominal 1500 ng/mL), 1538 ± 52.0 ng/mL. The “Long-term Stability, Measured Conc.” value was 2.86 ± 0.20 ng/mL in series [5] (nominal 3.0 ng/mL) and 1500 ± 37.4 ng/mL in series [5] (nominal 1500 ng/mL). Moreover, the “Autosampler Stability, Measured Conc.” value was 2.91 ± 0.16 ng/mL in series [5] (nominal 3.0 ng/mL) and 1535 ± 54.7 ng/mL in series [5] (nominal 1500 ng/mL). For the same compound, the efflux rate constant result in series [6] is recorded as “higher than 2”.
In the case of `O=c1c(O[C@@H]2O[C@H](CO)[C@H](O)[C@H](O)[C@H]2O)c(-c2ccc(O)c(O)c2)oc2cc(O)cc(O)c12` [hyperoside], the BCS class entry in series [4] was “III/IV”.
Consider `COc1cc2c3c(c1OC)-c1ccccc1C[C@H]3N(C)CC2` [nuciferine], for which the BCS class entry in series [4] is on record as “III/IV”.
Turning to `C[C@@H]1O[C@@H](OC[C@H]2O[C@@H](Oc3c(-c4ccc(O)c(O)c4)oc4cc(O)cc(O)c4c3=O)[C@H](O)[C@@H](O)[C@@H]2O)[C@H](O)[C@H](O)[C@H]1O` [rutin], the BCS class result in series [4] is listed as “III/IV”.
On to salvianolic acid B, for which the BCS class result in series [4] is reported as “III/IV”.
